Key:
Type in all cases: in vivo
[1] = tested on: ivy-leaved morning glory (Ipomoea hederacea); assay: Test G Pre-Emergence Protocol; settings: Ipomoea, pre-emergence, 312 h, evaluated after 13 days; for pest or weed control at 15.625 g/ha: 15.625 g ai/ha; for pest or weed control at 15.625 g/ha / pest or weed control at 250 g/ha: read-out: Morningglory, Ivy-leaved damage rating (100=total damage to plant; 0=no damage to plant); for pest or weed control at 62.5 g/ha: 62.5 g ai/ha, 100=total damage to plant, 0=no damage to plant, read-out: Morningglory, Ivy-leaved damage rating; for pest or weed control at 250 g/ha: 250 g ai/ha
How it was run: (§1)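 Visual injury (0–100) at day 13 after a single pre-emergence spray. Rates: 15.625, 62.5, 250 g/ha in acetone–water 50:50 with 0.5% Tween 20. Growth conditions: 24/16° C, 14 h light, 65% humidity.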

[2] = tested on: corn (Zea mays); assay: Test G Pre-Emergence Protocol; settings: Zea mays, pre-emergence, 312 h, evaluated after 13 days; for plant injury at 15.625 g/ha: 15.625 g ai/ha; for plant injury at 15.625 g/ha / plant injury at 250 g/ha: read-out: Corn damage rating (100=total damage to plant; 0=no damage to plant); for plant injury at 62.5 g/ha: 62.5 g ai/ha, 100=total damage to plant, 0=no damage to plant, read-out: Corn damage rating; for plant injury at 250 g/ha: 250 g ai/ha
How it was run: as §1

[3] = tested on: giant foxtail (Setaria faberi); assay: Test G Pre-Emergence Protocol; settings: Setaria faberi, pre-emergence, 312 h, evaluated after 13 days; for pest or weed control at 15.625 g/ha: 15.625 g ai/ha; for pest or weed control at 15.625 g/ha / pest or weed control at 250 g/ha: read-out: Foxtail, Giant damage rating (100=total damage to plant; 0=no damage to plant); for pest or weed control at 62.5 g/ha: 62.5 g ai/ha, 100=total damage to plant, 0=no damage to plant, read-out: Foxtail, Giant damage rating; for pest or weed control at 250 g/ha: 250 g ai/ha
How it was run: as §1

[4] = tested on: redroot pigweed (Amaranthus retroflexus); assay: Test G Pre-Emergence Protocol; settings: Amaranthus retroflexus, pre-emergence, 312 h, evaluated after 13 days; for pest or weed control at 15.625 g/ha: 15.625 g ai/ha; for pest or weed control at 15.625 g/ha / pest or weed control at 250 g/ha: read-out: Pigweed, Redroot damage rating (100=total damage to plant; 0=no damage to plant); for pest or weed control at 62.5 g/ha: 62.5 g ai/ha, 100=total damage to plant, 0=no damage to plant, read-out: Pigweed, Redroot damage rating; for pest or weed control at 250 g/ha: 250 g ai/ha
How it was run: as §1

[5] = tested on: barnyardgrass (Echinochloa crus-galli); assay: Test G Pre-Emergence Protocol; settings: Echinochloa crus-galli, pre-emergence, 312 h, evaluated after 13 days; for pest or weed control at 15.625 g/ha: 15.625 g ai/ha; for pest or weed control at 15.625 g/ha / pest or weed control at 250 g/ha: read-out: Barnyardgrass damage rating (100=total damage to plant; 0=no damage to plant); for pest or weed control at 62.5 g/ha: 62.5 g ai/ha, 100=total damage to plant, 0=no damage to plant, read-out: Barnyardgrass damage rating; for pest or weed control at 250 g/ha: 250 g ai/ha
How it was run: as §1

[6] = tested on: velvetleaf (Abutilon theophrasti); assay: Test G Pre-Emergence Protocol; settings: Abutilon theophrasti, pre-emergence, 312 h, evaluated after 13 days; for pest or weed control at 15.625 g/ha: 15.625 g ai/ha; for pest or weed control at 15.625 g/ha / pest or weed control at 250 g/ha: read-out: Velvetleaf damage rating (100=total damage to plant; 0=no damage to plant); for pest or weed control at 62.5 g/ha: 62.5 g ai/ha, 100=total damage to plant, 0=no damage to plant, read-out: Velvetleaf damage rating; for pest or weed control at 250 g/ha: 250 g ai/ha
How it was run: as §1

[7] = tested on: ivy-leaved morning glory (Ipomoea hederacea); assay: Test G Post-Emergence Protocol; settings: Ipomoea, post-emergence, 312 h, read-out: Morningglory, Ivy-leaved damage rating; for pest or weed control at 15.625 g/ha: 15.625 g ai/ha, evaluated after 13 days (100=total damage to plant; 0=no damage to plant); for pest or weed control at 62.5 g/ha: 62.5 g ai/ha; for pest or weed control at 62.5 g/ha / pest or weed control at 250 g/ha: evaluated after 13 days, 100=total damage to plant, 0=no damage to plant; for pest or weed control at 250 g/ha: 250 g ai/ha
How it was run: (§2)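 Eight days post-sowing, plants received a spray of test compound (acetone/water 50:50, 0.5% Tween 20) at 15.625, 62.5 or 250 g/ha. Glasshouse regime thereafter: 24/16 °C, 14 h light, 65% humidity. Assessment after 13 days on a 0–100 damage scale.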

[8] = tested on: corn (Zea mays); assay: Test G Post-Emergence Protocol; settings: Zea mays, post-emergence, 312 h, read-out: Corn damage rating; for plant injury at 15.625 g/ha: 15.625 g ai/ha, evaluated after 13 days (100=total damage to plant; 0=no damage to plant); for plant injury at 62.5 g/ha: 62.5 g ai/ha; for plant injury at 62.5 g/ha / plant injury at 250 g/ha: evaluated after 13 days, 100=total damage to plant, 0=no damage to plant; for plant injury at 250 g/ha: 250 g ai/ha
How it was run: as §2

[9] = tested on: giant foxtail (Setaria faberi); assay: Test G Post-Emergence Protocol; settings: Setaria faberi, post-emergence, 312 h, read-out: Foxtail, Giant damage rating; for pest or weed control at 15.625 g/ha: 15.625 g ai/ha, evaluated after 13 days (100=total damage to plant; 0=no damage to plant); for pest or weed control at 62.5 g/ha: 62.5 g ai/ha; for pest or weed control at 62.5 g/ha / pest or weed control at 250 g/ha: evaluated after 13 days, 100=total damage to plant, 0=no damage to plant; for pest or weed control at 250 g/ha: 250 g ai/ha
How it was run: as §2

[10] = tested on: redroot pigweed (Amaranthus retroflexus); assay: Test G Post-Emergence Protocol; settings: Amaranthus retroflexus, post-emergence, 312 h, read-out: Pigweed, Redroot damage rating; for pest or weed control at 15.625 g/ha: 15.625 g ai/ha, evaluated after 13 days (100=total damage to plant; 0=no damage to plant); for pest or weed control at 62.5 g/ha: 62.5 g ai/ha; for pest or weed control at 62.5 g/ha / pest or weed control at 250 g/ha: evaluated after 13 days, 100=total damage to plant, 0=no damage to plant; for pest or weed control at 250 g/ha: 250 g ai/ha
How it was run: as §2

[11] = tested on: barnyardgrass (Echinochloa crus-galli); assay: Test G Post-Emergence Protocol; settings: Echinochloa crus-galli, post-emergence, 312 h, read-out: Barnyardgrass damage rating; for pest or weed control at 15.625 g/ha: 15.625 g ai/ha, evaluated after 13 days (100=total damage to plant; 0=no damage to plant); for pest or weed control at 62.5 g/ha: 62.5 g ai/ha; for pest or weed control at 62.5 g/ha / pest or weed control at 250 g/ha: evaluated after 13 days, 100=total damage to plant, 0=no damage to plant; for pest or weed control at 250 g/ha: 250 g ai/ha
How it was run: as §2

[12] = tested on: velvetleaf (Abutilon theophrasti); assay: Test G Post-Emergence Protocol; settings: Abutilon theophrasti, post-emergence, 312 h, read-out: Velvetleaf damage rating; for pest or weed control at 15.625 g/ha: 15.625 g ai/ha, evaluated after 13 days (100=total damage to plant; 0=no damage to plant); for pest or weed control at 62.5 g/ha: 62.5 g ai/ha; for pest or weed control at 62.5 g/ha / pest or weed control at 250 g/ha: evaluated after 13 days, 100=total damage to plant, 0=no damage to plant; for pest or weed control at 250 g/ha: 250 g ai/ha
How it was run: as §2

SMILES | pest or weed control at 15.625 g/ha [1] | pest or weed control at 62.5 g/ha [1] | pest or weed control at 250 g/ha [1] | plant injury at 15.625 g/ha [2] | plant injury at 62.5 g/ha [2] | plant injury at 250 g/ha [2] | pest or weed control at 15.625 g/ha [3] | pest or weed control at 62.5 g/ha [3] | pest or weed control at 250 g/ha [3] | pest or weed control at 15.625 g/ha [4] | pest or weed control at 62.5 g/ha [4] | pest or weed control at 250 g/ha [4] | pest or weed control at 15.625 g/ha [5] | pest or weed control at 62.5 g/ha [5] | pest or weed control at 250 g/ha [5] | pest or weed control at 15.625 g/ha [6] | pest or weed control at 62.5 g/ha [6] | pest or weed control at 250 g/ha [6] | pest or weed control at 15.625 g/ha [7] | pest or weed control at 62.5 g/ha [7] | further results
CN1C[C@H](c2ccc(C(F)(F)F)cc2)[C@@H](C(=O)Nc2cncnc2Cl)C1=O (racemic) [Compound 1748] | 0% | 0% | 0% | 0% | 0% | 0% | 0% | 0% | 0% | 0% | 0% | 0% | 0% | 0% | 0% | 0% | 0% | 0% | 0% | 0% | pest or weed control at 250 g/ha [7]: 0%; plant injury at 15.625 g/ha [8]: 0%; plant injury at 62.5 g/ha [8]: 0%; plant injury at 250 g/ha [8]: 0%; pest or weed control at 15.625 g/ha [9]: 0%; pest or weed control at 62.5 g/ha [9]: 0%; pest or weed control at 250 g/ha [9]: 0%; pest or weed control at 15.625 g/ha [10]: 0%; pest or weed control at 62.5 g/ha [10]: 0%; pest or weed control at 250 g/ha [10]: 0%; pest or weed control at 15.625 g/ha [11]: 0%; pest or weed control at 62.5 g/ha [11]: 0%; pest or weed control at 250 g/ha [11]: 0%; pest or weed control at 15.625 g/ha [12]: 0%; pest or weed control at 62.5 g/ha [12]: 0%; pest or weed control at 250 g/ha [12]: 0%
CSc1ccncc1NC(=O)[C@H]1C(=O)N(C)C[C@@H]1c1ccc(C(F)(F)F)cc1 (racemic) [Compound 1749] | 0% | 0% | 0% | 0% | 0% | 0% | 0% | 0% | 0% | 0% | 0% | 0% | 0% | 0% | 0% | 0% | 0% | 0% | 0% | 0% | pest or weed control at 250 g/ha [7]: 0%; plant injury at 15.625 g/ha [8]: 0%; plant injury at 62.5 g/ha [8]: 0%; plant injury at 250 g/ha [8]: 0%; pest or weed control at 15.625 g/ha [9]: 0%; pest or weed control at 62.5 g/ha [9]: 0%; pest or weed control at 250 g/ha [9]: 0%; pest or weed control at 15.625 g/ha [10]: 0%; pest or weed control at 62.5 g/ha [10]: 0%; pest or weed control at 250 g/ha [10]: 0%; pest or weed control at 15.625 g/ha [11]: 0%; pest or weed control at 62.5 g/ha [11]: 0%; pest or weed control at 250 g/ha [11]: 0%; pest or weed control at 15.625 g/ha [12]: 0%; pest or weed control at 62.5 g/ha [12]: 0%; pest or weed control at 250 g/ha [12]: 0%
CSc1ccncc1NC(=O)[C@H]1C(=O)N(C)C[C@@H]1c1cccc(C(F)(F)F)c1 (racemic) [Compound 1750] | 0% | 0% | 0% | 0% | 0% | 10% | 0% | 20% | 70% | 0% | 0% | 0% | 0% | 10% | 10% | 0% | 0% | 0% | 0% | 10% | pest or weed control at 250 g/ha [7]: 10%; plant injury at 15.625 g/ha [8]: 0%; plant injury at 62.5 g/ha [8]: 10%; plant injury at 250 g/ha [8]: 10%; pest or weed control at 15.625 g/ha [9]: 0%; pest or weed control at 62.5 g/ha [9]: 0%; pest or weed control at 250 g/ha [9]: 50%; pest or weed control at 15.625 g/ha [10]: 0%; pest or weed control at 62.5 g/ha [10]: 10%; pest or weed control at 250 g/ha [10]: 20%; pest or weed control at 15.625 g/ha [11]: 0%; pest or weed control at 62.5 g/ha [11]: 0%; pest or weed control at 250 g/ha [11]: 20%; pest or weed control at 15.625 g/ha [12]: 0%; pest or weed control at 62.5 g/ha [12]: 0%; pest or weed control at 250 g/ha [12]: 0%

Reference: patent US12077503B2, “Substituted cyclic amides and their use as herbicides” (FMC CORPORATION, priority 2015, dated 2024)
